Experimental data taken from BigSolDB 2.1.

CC(=O)Nc1ccc(CC(=O)O)cc1
solubility (mole fraction)
Conditions | 278.15 K | 283.15 K | 288.15 K | 293.15 K | 298.15 K | 303.15 K | 308.15 K | 313.15 K | 318.15 K
in 2-butanone | 0.00496 | 0.00586 | 0.00689 | 0.00821 | 0.00975 | 0.0115 | 0.0137 | 0.0162 | 0.0192
in acetone | 0.00366 | 0.00441 | 0.00534 | 0.00646 | 0.0078 | 0.00942 | 0.0114 | 0.0136 | 0.0161
in acetonitrile | 0.00093 | 0.00116 | 0.00142 | 0.00175 | 0.00215 | 0.00262 | 0.00318 | 0.00381 | 0.00455
in cyclohexane | – | 1.89e-06 | 2.51e-06 | 3.4e-06 | 4.44e-06 | 5.83e-06 | 7.44e-06 | 9.5e-06 | 1.21e-05
in ethanol | 0.0062 | 0.00723 | 0.00851 | 0.0102 | 0.0121 | 0.0143 | 0.0171 | 0.0201 | 0.0238
in ethyl acetate | 0.000627 | 0.000783 | 0.000985 | 0.00126 | 0.00156 | 0.00193 | 0.00238 | 0.00291 | 0.00357
in isopropanol | 0.00293 | 0.00353 | 0.00437 | 0.0054 | 0.00666 | 0.00823 | 0.0101 | 0.0123 | 0.0149
in methanol | 0.00792 | 0.00927 | 0.0113 | 0.0138 | 0.0169 | 0.0207 | 0.0249 | 0.0303 | 0.0369
in n-butanol | 0.00401 | 0.0048 | 0.0058 | 0.00711 | 0.00871 | 0.0105 | 0.0126 | 0.0149 | 0.0178
in n-propanol | 0.00538 | 0.00628 | 0.00745 | 0.00889 | 0.0105 | 0.0126 | 0.0149 | 0.0175 | 0.0204
in toluene | 2.62e-06 | 3.44e-06 | 4.5e-06 | 5.88e-06 | 7.6e-06 | 9.71e-06 | 1.24e-05 | 1.59e-05 | 2.04e-05
in water | 0.000163 | 0.000208 | 0.000264 | 0.000336 | 0.000421 | 0.000534 | 0.000661 | 0.000826 | 0.00104
